Assay results from patent publication US7476691B2, “Sulfamate benzothiophene derivatives as steroid sulfatase inhibitors” (Laboratoire Theramex, priority 2003, dated 2009).

How the values were obtained:
[1] = tested on: ovariectomized Wistar female rats; experiment: Antiuterotrophic/antisulfatase activity: inhibition of E1S stimulated uterus weight; type: in vivo, rat
Protocol: A short model, derived from Purohit's method, was developed for the evaluation in vivo of nonestrogenic steroid sulfatase inhibitors.
Wistar female rats were ovariectomized and left to rest for 4 weeks. Prior to treatment, the absence of cyclicity was checked by vaginal smears.
Animals were supplemented with estrone sulfate (E1S) at 50 μg/kg/day s.c., alone or combined with oral administration of potential sulfatase inhibitors, at 1 mg/kg/day for 4 days. The uteri were removed, freed of adjacent tissue and wet weighed.
The results are expressed as % of inhibition of the E1S induced stimulation.
The activity of Ex 55 on E1S stimulated uterus weight was evaluated in relation to the standard inhibitor 6,6,7 COUMATE from 0.03 mg/kg/day to 1 mg/kg/day p.o.
(§1) In this study, a last administration was performed 24 hours before the necropsy for E1S and E2 serum levels assays. The uteri were removed, freed of adjacent tissue, wet weighed and immediately deep frozen until the determination of sulfatase activity.

[2] = Serum estrogen levels (E1S and E2) in treated rats; type: in vivo, rat; conditions: 24 h after last administration
Protocol: as §1
E1S and E2 levels were determined according to the supplier's standard method (DSL, Webster, Tex., USA).

[3] = tested on: MCF-7 cells; experiment: Hormono-dependent induced MCF-7 xenografts: volume and weight; type: in vivo, mice; conditions: oral 0.1 mg/kg/day for 6 weeks
Protocol: MCF-7 cells, derived from human breast adenocarcinoma, were injected subcutaneously in ovariectomized athymic nude mice supplemented with estrone sulfate (pellets 0.5 mg/90 day release). Xenograft volumes were determined once weekly. When tumor volumes reached a significant increase, 6,6,7 COUMATE and Ex 55 were orally administered at 0.1 mg/kg/day for 6 weeks.
Xenografts were measured, removed, weighed, and deep frozen until the determination of steroid sulfatase activity.

[4] = tested on: prepubescent female rats; experiment: Residual estrogenic activity in vivo (uterotrophic assay)
Protocol: These compounds were checked for residual estrogenic activity in vivo in the classical uterotrophic assay after 3-day administration by oral route in prepubescent female rats.
Prepubescent female rats were orally treated at 1 mg/rat/day for 3 days. On the day following the last treatment, uteri were removed and wet weight were recorded.
The results are expressed as % of stimulation of uterus weight in comparison with controls.

[5] = target: T1, estrone sulfatase (Homo sapiens, UniProt P08842); experiment: Estrone sulfatase whole-cell assay on JEG-3 cells; type: cell-based; design: The JEG-3 cell line, derived from a human placental choriocarcinoma, is spontaneously very rich in human estrone sulfatase; endogenous in cells; host or cells: JEG-3 (human placental choriocarcinoma), intact cells; conditions: 4 h treatment, 3H-E1S, read-out: IC50 (nM) ± S.E.M., inhibition of estrone sulfatase
T1 sequence (P08842 22-583): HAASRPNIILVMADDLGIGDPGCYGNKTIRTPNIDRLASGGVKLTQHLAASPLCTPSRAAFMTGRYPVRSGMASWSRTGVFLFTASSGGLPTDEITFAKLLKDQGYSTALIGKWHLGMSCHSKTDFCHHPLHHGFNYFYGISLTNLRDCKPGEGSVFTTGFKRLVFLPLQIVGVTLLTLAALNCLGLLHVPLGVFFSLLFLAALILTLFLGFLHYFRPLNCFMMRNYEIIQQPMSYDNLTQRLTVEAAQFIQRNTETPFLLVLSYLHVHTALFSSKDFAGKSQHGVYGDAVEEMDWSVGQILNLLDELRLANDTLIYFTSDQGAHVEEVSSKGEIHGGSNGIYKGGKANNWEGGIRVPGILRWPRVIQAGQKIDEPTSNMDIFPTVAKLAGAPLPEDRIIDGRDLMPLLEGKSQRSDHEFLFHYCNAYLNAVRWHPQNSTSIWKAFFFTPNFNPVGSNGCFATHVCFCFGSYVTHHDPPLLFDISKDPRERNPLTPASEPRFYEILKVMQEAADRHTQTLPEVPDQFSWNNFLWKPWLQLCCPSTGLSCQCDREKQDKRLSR
Protocol: Two in vitro models on whole cells were used. […] Moreover, these cells were used in the in vivo model of hormono-dependent induced xenografts.
Estrone Sulfatase Assay on Cells
Whole-cell assays were performed as originally described by Duncan et al. (Cancer Res., 1993, 53: 298-303) on intact MCF-7 cell monolayers. Assays were carried out with cells in logarithmic growth phase, on 96-well (JEG-3) or 24-well (MCF-7) microplates. Twenty-four hours (JEG-3) or 72 h (MCF-7) before studies, cells were seeded in decomplemented fetal calf serum (dFCS) supplemented medium. Then, the seeding medium was removed and the cells were rinsed with PBS to eliminate any trace of dFCS. Then, ^3H-E1S was added, followed by test compounds ranging from 10^−12 M to 10^−5 M. After 4 h (JEG-3) or 20 h (MCF-7) of treatment, the medium was transferred into either 96-deep-well microplates (JEG-3) or plastic tubes (MCF-7) and centrifuged at 200×g for 10 min to pellet cells before toluene extraction. A fraction of medium was used for toluene extraction in order to separate conjugated substrate and non-conjugated products. The radioactivity in the toluene phase was measured by liquid scintillation counting (LSC). Finally, estrone sulfatase activity was expressed in pmoles of ^3H-E1+^3H-E2 formed per 4 or 20 hours and per μg DNA and estrone sulfatase inhibition in percentage of control activity without inhibitor.

[6] = MCF-7 xenografts, nude mice with E1S pellet

NS(=O)(=O)Oc1ccc2c(c1)S(=O)(=O)C(CC1CCCCCC1)=C2 [Ex 55, Sulfamic acid, 2-cycloheptylmethyl-benzothiophene-6-yl-1,1-dioxide ester]
Inhibition of E1S stimulated uterus weight ([1]; 0.03 mg/kg/day p.o.): 0% | Inhibition of E1S stimulated uterus weight ([1]; 0.1 mg/kg/day p.o.): 0% | Inhibition of E1S stimulated uterus weight ([1]; 0.3 mg/kg/day p.o.): 36% | Inhibition of E1S stimulated uterus weight ([1]; 1 mg/kg/day p.o.): 72% | % inhibition of the E1S induced stimulation (uterus weight) ([1]; ovariectomized rats, E1S 50 μg/kg/day s.c., compound oral 1 mg/kg/day for 4 days): 81% | inhibition of E1S stimulated uterus weight (in words) ([1]; summary of the antiuterotrophic assay): significant inhibition | E1S levels (serum) ([2]; 0.03 mg/kg/day p.o.): 17 ± 2.5 ng/mL | E2 levels (serum) ([2]; 0.03 mg/kg/day p.o.): 31 ± 2.8 pg/mL | E1S levels (serum) ([2]; 0.1 mg/kg/day p.o.): 21 ± 2.4 ng/mL | E2 levels (serum) ([2]; 0.1 mg/kg/day p.o.): 28 ± 1.3 pg/mL | E1S levels (serum) ([2]; 0.3 mg/kg/day p.o.): 69 ± 5.9 ng/mL | E2 levels (serum) ([2]; 0.3 mg/kg/day p.o.): 22 ± 1.2 pg/mL | E1S levels (serum) ([2]; 1 mg/kg/day p.o.): 83 ± 2.5 ng/mL | E2 levels (serum) ([2]; 1 mg/kg/day p.o.): 15 ± 0.9 pg/mL | Xenograft volume after 6 week treatment [3, 6]: 1488 ± 233 mm^3 | Xenograft weight after 6 week treatment [3, 6]: 877 ± 185 mg | inhibition of the E1S induced stimulation (xenograft volume) [3]: 18% | inhibition of xenograft weight [3]: 35% | % stimulation of uterus weight in comparison with controls ([4]; prepubescent female rats, oral, 1 mg/rat/day for 3 days): 3% | estrogenicity (in words) ([4]; summary of the uterotrophic assay): lack of estrogenicity | IC50 [5]: 7.7 ± 0.4 nM
